Data reported in patent publication US6770597B2, “Benzohydrazide derivatives as herbicides and desiccant compositions containing them” (Ishihara Sangyo Kaisha, Ltd., priority 2002, dated 2004).

Legend:
Assay type in all cases: in vivo
[1] = tested on: velvetleaf (Abutilon theophrasti, ABUTH); experiment: Greenhouse herbicide screen, pre-emerge application, phytotoxicity rating; details: PRE emergent, 14 days after application, rating scale 0-100
Description: (§1) A standard greenhouse herbicide activity screening system was used to evaluate the herbicidal efficacy and crop safety of these test compounds. Seven broadleaf weed species including redroot pigweed (Amaranthus retrofiexus, AMARE), velvetleaf (Abutilon theophrasti, ABUTH), sicklepod (Cassia obtusifolia, CASOB), ivyleaf morningglory (Ipomoea hederacea, IPOHE), lambsquarters (Chenopodium album, CHEAL), common ragweed (Ambrosia artemisiifolia L., AMBEL), and cocklebur (Xanthium strumarium, XANST) were used as test species. Four grass weed species including green foxtail (Setaria viridis, SETVI), barnyardgrass (Echinochloa crus-galli, ECHCG), johnsongrass (Sorghum halepense, SORHA), and large crabgrass (Digitaria sanguinalis, DIGSA) were also used. In addition, four crop species, field corn (Zea mays L., var. Dekalb 535, CORN), soybean (Glycine max L., var. Pella 86, SOY), upland rice (Oryza sp., var.Cocodrie, RICE) and wheat (Triticum aestivum L.) were included.
(§2) All plants were grown in 10 cm square plastic pots which were filled with a sandy loam soil mix. For pre-emerge tests, seeds were planted one day prior to application of the test compounds. For post-emerge tests, seeds were planted 8-21 days prior to the test to allow emergence and good foliage development prior to application of the test substances. At the time of the post-emerge application, plants of all species were usually at the 2-3 leaf stage of development.
(§3) All test compounds were dissolved in acetone and applied to the test units in a volume of 187 l/ha. Test materials were applied at rates ranging from 15 g ai/ha to 1000 g ai/ha using a track sprayer equipped with a TJ8001E even flow flat fan spray nozzle. Plants were arranged on a shelf so that the top of the canopy (post-emerge) or top of the soil surface (pre-emerge) was 40-45 cm below the nozzle. Pressurized air was used to force the test solution through the nozzle as it was mechanically advanced (via electrically driven chain drive) over the top of all test plants/pots. This application simulates a typical commercial field herbicide application.
(§4) Pre-emergence tests were top watered immediately after treatment to incorporate the test materials, then routinely top-watered for normal growth. Post-emerge test units were always bottom-watered.
(§5) At 14 days after application of the test materials, phytotoxicity ratings were recorded. A rating scale of 0-100 was used as previously described in Research Methods in Weed Science, 2nd edition, B. Truelove, Ed., Southern Weed Science Society, Auburn University, Auburn, Ala., 1977. Briefly, “0” corresponds to no damage and “100” corresponds to complete death of all plants in the test unit. This scale was used both to determine efficacy against weed species and damage to crop species. Herbicide activity data for various compounds of this invention, which are shown by compound No. in Tables 1-12, are shown in Tables 13 and 14.

[2] = tested on: barnyardgrass (Echinochloa crus-galli, ECHCG); experiment: as above; details: PRE emergent, 14 days after application, rating scale 0-100
Description: as §1, §2, §3, §4, §5

[3] = tested on: lambsquarters (Chenopodium album, CHEAL); experiment: as above; details: PRE emergent, 14 days after application, rating scale 0-100
Description: as §1, §2, §3, §4, §5

[4] = tested on: redroot pigweed (Amaranthus retrofiexus, AMARE); experiment: as above; details: PRE emergent, 14 days after application, rating scale 0-100
Description: as §1, §2, §3, §4, §5

[5] = tested on: common ragweed (Ambrosia artemisiifolia L., AMBEL); experiment: as above; details: PRE emergent, 14 days after application, rating scale 0-100
Description: as §1, §2, §3, §4, §5

[6] = tested on: ivyleaf morningglory (Ipomoea hederacea, IPOHE); experiment: as above; details: PRE emergent, 14 days after application, rating scale 0-100
Description: as §1, §2, §3, §4, §5

[7] = tested on: green foxtail (Setaria viridis, SETVI); experiment: as above; details: PRE emergent, 14 days after application, rating scale 0-100
Description: as §1, §2, §3, §4, §5

[8] = tested on: johnsongrass (Sorghum halepense, SORHA); experiment: as above; details: PRE emergent, 14 days after application, rating scale 0-100
Description: as §1, §2, §3, §4, §5

[9] = tested on: large crabgrass (Digitaria sanguinalis, DIGSA); experiment: as above; details: PRE emergent, 14 days after application, rating scale 0-100
Description: as §1, §2, §3, §4, §5

[10] = tested on: sicklepod (Cassia obtusifolia, CASOB); experiment: as above; details: PRE emergent, 14 days after application, rating scale 0-100
Description: as §1, §2, §3, §4, §5

[11] = tested on: cocklebur (Xanthium strumarium, XANST); experiment: as above; details: PRE emergent, 14 days after application, rating scale 0-100
Description: as §1, §2, §3, §4, §5

[12] = tested on: velvetleaf (Abutilon theophrasti, ABUTH); experiment: Greenhouse herbicide screen, post-emerge application, phytotoxicity rating; details: POST emergent, 14 days after application, scale 0-100
Description: as §1, §2, §3, §4, §5

[13] = tested on: barnyardgrass (Echinochloa crus-galli, ECHCG); experiment: as above; details: POST emergent, 14 days after application, scale 0-100
Description: as §1, §2, §3, §4, §5

[14] = tested on: lambsquarters (Chenopodium album, CHEAL); experiment: as above; details: POST emergent, 14 days after application, scale 0-100
Description: as §1, §2, §3, §4, §5

[15] = tested on: redroot pigweed (Amaranthus retrofiexus, AMARE); experiment: as above; details: POST emergent, 14 days after application
Description: as §1, §2, §3, §4, §5

[16] = tested on: common ragweed (Ambrosia artemisiifolia L., AMBEL); experiment: as above; details: POST emergent, 14 days after application, scale 0-100
Description: as §1, §2, §3, §4, §5

[17] = tested on: ivyleaf morningglory (Ipomoea hederacea, IPOHE); experiment: as above; details: POST emergent, 14 days after application, scale 0-100
Description: as §1, §2, §3, §4, §5

[18] = tested on: green foxtail (Setaria viridis, SETVI); experiment: as above; details: POST emergent, 14 days after application, scale 0-100
Description: as §1, §2, §3, §4, §5

[19] = tested on: johnsongrass (Sorghum halepense, SORHA); experiment: as above; details: POST emergent, 14 days after application, scale 0-100
Description: as §1, §2, §3, §4, §5

[20] = tested on: large crabgrass (Digitaria sanguinalis, DIGSA); experiment: as above; details: POST emergent, 14 days after application, scale 0-100
Description: as §1, §2, §3, §4, §5

[21] = tested on: sicklepod (Cassia obtusifolia, CASOB); experiment: as above; details: POST emergent, 14 days after application, scale 0-100
Description: as §1, §2, §3, §4, §5

[22] = tested on: cocklebur (Xanthium strumarium, XANST); experiment: as above; details: POST emergent, 14 days after application, scale 0-100
Description: as §1, §2, §3, §4, §5

[23] = 63 g ai/ha, scale 0-100 (0 no damage, 100 complete death)

## CN(N=C(C(C)(C)C)C(C)(C)C)C(=O)c1cc(-n2c(=O)cc(C(F)(F)F)n(C)c2=O)c(F)cc1Cl [Compound 6-8, 2-chloro-5-(3,6-dihydro-3-methyl-2,6-dioxo-4-(trifluoromethyl)-1(2H)-pyrimidinyl)-4-fluoro-benzoic acid, 2-[1-(1,1-dimethylethyl)-2,2-dimethylpropylidene]-1-methylhydrazide]
[1]; 63 g ai/ha
  phytotoxicity rating ABUTH: 99
[1]; 250 g ai/ha
  phytotoxicity rating ABUTH: 99
[2]; 63 g ai/ha
  phytotoxicity rating ECHCG: 30
[2]; 250 g ai/ha
  phytotoxicity rating ECHCG: 85
[3]; 63 g ai/ha
  phytotoxicity rating CHEAL: 100
[3]; 250 g ai/ha
  phytotoxicity rating CHEAL: 100
[4]; 63 g ai/ha
  phytotoxicity rating AMARE: 100
[4]; 250 g ai/ha
  phytotoxicity rating AMARE: 100
[5]; 63 g ai/ha
  phytotoxicity rating AMBEL: 0
[5]; 250 g ai/ha
  phytotoxicity rating AMBEL: 99
[6]; 63 g ai/ha
  phytotoxicity rating IPOHE: 60
[6]; 250 g ai/ha
  phytotoxicity rating IPOHE: 100
[7]; 63 g ai/ha
  phytotoxicity rating SETVI: 55
[7]; 250 g ai/ha
  phytotoxicity rating SETVI: 99
[8]; 63 g ai/ha
  phytotoxicity rating SORHA: 55
[8]; 250 g ai/ha
  phytotoxicity rating SORHA: 100
[9]; 63 g ai/ha
  phytotoxicity rating DIGSA: 60
[9]; 250 g ai/ha
  phytotoxicity rating DIGSA: 95
[10]; 63 g ai/ha
  phytotoxicity rating CASOB: 20
[10]; 250 g ai/ha
  phytotoxicity rating CASOB: 70
[11]; 63 g ai/ha
  phytotoxicity rating XANST: 0
[11]; 250 g ai/ha
  phytotoxicity rating XANST: 70
[12]; 63 g ai/ha
  phytotoxicity rating ABUTH: 50
[12]; 250 g ai/ha
  phytotoxicity rating ABUTH: 100
[13]; 63 g ai/ha
  phytotoxicity rating ECHCO: 60
[13]; 250 g ai/ha
  phytotoxicity rating ECHCO: 85
[14]; 63 g ai/ha
  phytotoxicity rating CHEAL: 80
[14]; 250 g ai/ha
  phytotoxicity rating CHEAL: 100
[15]; [23]
  phytotoxicity rating AMARE: 99
[15]; 250 g ai/ha, scale 0-100
  phytotoxicity rating AMARE: 100
[16]; 63 g ai/ha
  phytotoxicity rating AMBEL: 70
[16]; 250 g ai/ha
  phytotoxicity rating AMBEL: 70
[17]; 63 g ai/ha
  phytotoxicity rating IPOHE: 100
[17]; 250 g ai/ha
  phytotoxicity rating IPOHE: 100
[18]; 63 g ai/ha
  phytotoxicity rating SETVI: 50
[18]; 250 g ai/ha
  phytotoxicity rating SETVI: 75
[19]; 63 g ai/ha
  phytotoxicity rating SORHA: 65
[19]; 250 g ai/ha
  phytotoxicity rating SORHA: 95
[20]; 63 g ai/ha
  phytotoxicity rating DIGSA: 50
[20]; 250 g ai/ha
  phytotoxicity rating DIGSA: 60
[21]; 63 g ai/ha
  phytotoxicity rating CASOB: 50
[21]; 250 g ai/ha
  phytotoxicity rating CASOB: 60
[22]; 63 g ai/ha
  phytotoxicity rating XANST: 35
[22]; 250 g ai/ha
  phytotoxicity rating XANST: 100

## CC(=NNC(=O)c1cc(-n2c(=O)cc(C(F)(F)F)n(C)c2=O)c(F)cc1Cl)C(C)(C)C [Compound 6-5, 2-chloro-5-(3,6-dihydro-3-methyl-2,6-dioxo-4-(trifluoromethyl)-1(2H)-pyrimidinyl)-4-fluoro-benzoic Acid, 2-(1,2,2-trimethylpropylidene)hydrazide]
[1]; 63 g ai/ha
  phytotoxicity rating ABUTH: 95
[1]; 250 g ai/ha
  phytotoxicity rating ABUTH: 100
[2]; 63 g ai/ha
  phytotoxicity rating ECHCG: 55
[2]; 250 g ai/ha
  phytotoxicity rating ECHCG: 90
[3]; 63 g ai/ha
  phytotoxicity rating CHEAL: 99
[3]; 250 g ai/ha
  phytotoxicity rating CHEAL: 100
[4]; 63 g ai/ha
  phytotoxicity rating AMARE: 99
[4]; 250 g ai/ha
  phytotoxicity rating AMARE: 100
[5]; 63 g ai/ha
  phytotoxicity rating AMBEL: 70
[5]; 250 g ai/ha
  phytotoxicity rating AMBEL: 100
[6]; 63 g ai/ha
  phytotoxicity rating IPOHE: 100
[6]; 250 g ai/ha
  phytotoxicity rating IPOHE: 100
[7]; 63 g ai/ha
  phytotoxicity rating SETVI: 60
[7]; 250 g ai/ha
  phytotoxicity rating SETVI: 85
[8]; 63 g ai/ha
  phytotoxicity rating SORHA: 85
[8]; 250 g ai/ha
  phytotoxicity rating SORHA: 99
[9]; 63 g ai/ha
  phytotoxicity rating DIGSA: 90
[9]; 250 g ai/ha
  phytotoxicity rating DIGSA: 99
[10]; 63 g ai/ha
  phytotoxicity rating CASOB: 50
[10]; 250 g ai/ha
  phytotoxicity rating CASOB: 70
[11]; 63 g ai/ha
  phytotoxicity rating XANST: 55
[11]; 250 g ai/ha
  phytotoxicity rating XANST: 99
[12]; 63 g ai/ha
  phytotoxicity rating ABUTH: 65
[12]; 250 g ai/ha
  phytotoxicity rating ABUTH: 100
[13]; 63 g ai/ha
  phytotoxicity rating ECHCO: 80
[13]; 250 g ai/ha
  phytotoxicity rating ECHCO: 95
[14]; 63 g ai/ha
  phytotoxicity rating CHEAL: 60
[14]; 250 g ai/ha
  phytotoxicity rating CHEAL: 95
[15]; [23]
  phytotoxicity rating AMARE: 70
[15]; 250 g ai/ha, scale 0-100
  phytotoxicity rating AMARE: 100
[16]; 63 g ai/ha
  phytotoxicity rating AMBEL: 60
[16]; 250 g ai/ha
  phytotoxicity rating AMBEL: 80
[17]; 63 g ai/ha
  phytotoxicity rating IPOHE: 75
[17]; 250 g ai/ha
  phytotoxicity rating IPOHE: 100
[18]; 63 g ai/ha
  phytotoxicity rating SETVI: 30
[18]; 250 g ai/ha
  phytotoxicity rating SETVI: 55
[19]; 63 g ai/ha
  phytotoxicity rating SORHA: 0
[19]; 250 g ai/ha
  phytotoxicity rating SORHA: 90
[20]; 63 g ai/ha
  phytotoxicity rating DIGSA: 75
[20]; 250 g ai/ha
  phytotoxicity rating DIGSA: 80
[21]; 63 g ai/ha
  phytotoxicity rating CASOB: 50
[21]; 250 g ai/ha
  phytotoxicity rating CASOB: 65
[22]; 63 g ai/ha
  phytotoxicity rating XANST: 70
[22]; 250 g ai/ha
  phytotoxicity rating XANST: 100
